Laboratory results reported in patent US20250326722A1 (SHANGHAI HANSOH BIOMEDICAL CO., LTD., priority 2022, published 2025).

Assays:
[1] = tested on: hyperlipidemia animal model of B6-hPCSK9 transgenic mice; experiment: In vivo pharmacodynamics in hyperlipidemia animal model of B6-hPCSK9 transgenic mice; set-up: species or system B6-hPCSK9 transgenic C57 mice; settings: PO administration, Day 14, high-fat feed
Description: The compounds of the present disclosure were evaluated for in vivo pharmacodynamics in a hyperlipidemia animal model of B6-hPCSK9 transgenic mice.
B6-hPCSK9 transgenic C57 mice, 6-8 weeks old, male, purchased from Jiangsu GemPharmatech Co., Ltd.
After delivery to a barrier system, the animals were given one week for acclimatization and began to feed on the high-fat feed. The body weight and feed weight were weighed once a week, and the body weight and food intake thereof were recorded.
a. The animals were grouped by a random grouping method.
c. According to the grouping results, administration with the test drug was started (mode of administration: oral administration; administration volume: 10 mL/kg; frequency of administration: once/day or single administration; administration cycle: 21 days; vehicle: 10% Solutol HS 15/90% Saline).
d. After the test drug was administered, the body weight and feed weight were weighed twice a week and blood was taken once a week.
e. The data was processed with software such as Excel. […] PCSK9 in plasma was detected by ELISA.

[2] = Pharmacokinetic determination in mice (plasma); assay type: in vivo, C57BL/6J mice; settings: C57 mice, PO administration, 5 mpk; for AUC(0-inf) / half-life / MRT / Cmax: male, C57BL/6J, mouse, 5 mg/kg; for AUC(0-inf): read-out: Area under the curve AUC0-∞; for half-life: read-out: Half-life t1/2 (converted); for MRT: read-out: Mean residence time MRT; for Cmax: read-out: Plasma concentration Cmax
In short: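 Male C57BL/6J mice (n=3 per route), fasted overnight, got 5 mg/kg PO in 10% Solutol HS15 or 1 mg/kg IV in 5% DMSO/10% Solutol HS15/85% PBS. Orbital blood was sampled at 0.083 (IV only), 0.25, 0.5, 1, 2, 4, 8 and 24 h. EDTA-K2 plasma was quantified by LC-MS/MS for PK parameters.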

[3] = molecular target: PCSK9 secreted by HepG2 cells (Homo sapiens (Human), UniProt Q8NBP7); experiment: Effect on the concentration of PCSK9 secreted by HepG2 cells (ELISA); assay type: cell-based; settings: 48 hours incubation, read-out: Inhibitory activity on PCSK9, IC50
[4] = molecular target: PCSK9 protein (Homo sapiens (Human), UniProt Q8NBP7); experiment: Binding experiment: surface plasmon resonance (SPR) binding to PCSK9 protein
Text: • 1. Experimental objective: To detect the action of compounds to bind PCSK9 protein by a conventional surface plasmon resonance (SPR) method.

[5] = tested on: LDLR level in HepG2 cells; experiment: Effect on the LDLR level in HepG2 cells (ELISA); assay type: cell-based, human; set-up: concentration or dose not given beside the values; settings: 48 hours incubation, LDLR ELISA of lysate
Description: To detect the effect of the compounds on the LDLR protein level.
Envision (PE-Cisbio: 2105-0020), centrifuge (Eppendorf: 5810R), water purifier (THERMO: Pacific T II+Micropure), plate washer (Thermo: […] VERSA), and microplate shaker (Thermo: 88882006)
• 1) HepG2 cell strain was cultured in the complete culture medium at 37° C., 5% CO2 to 70-90% confluence. • 2) The cells were digested and resuspended in the experimental culture medium, inoculation was performed at 25,000 cells/well/200 μL in a 96-well cell culture plate, and the cells were cultured at 37° C., 5% CO2 for 20-24 hours. • 3) The culture medium was removed from the cell culture plate, and the cell culture plate was washed once by adding 200 μl of the experimental culture medium to each well. • 4) Preparation of positive control compound and compound to be tested: the positive control compound and the compound to be tested were diluted on the compound plate. • 5) The diluted compound was added to the cell culture plate at 250 μL per well and incubated at 37° C. and 5% CO2 for 48 hours. • 6) The cell culture medium was removed, the cells were washed with PBS, and 50 μL of the cell lysis buffer and the protein inhibitor were added. • 7) After centrifugation, the lysate was removed and the sample was stored for later use. • 8) Preparation of standard curve: corresponding volumes of Dilution buffer were successively added to respective standard tubes, and the standard was diluted in series by taking the corresponding volume from the original tube or the last concentration tube. • 9) Preparation of washing liquid: 10× Wash buffer was diluted into 1× with Milli-Q for later use. • 10) According to the standard curve wells and sample wells set according to a plate map, 80 μL/well of the corresponding standards and samples were added to the wells, with 2 replicate wells. A well in which no standard was added was used as a background value well. A self-adhesive seal was applied, the plate was placed on a plate shaker at room temperature, gently shaken, uniformly mixed, and incubated for 2 hours. • 11) The plate was placed on the plate washer, the washing liquid was set to 350 μL per well, and the plate was washed 4 times repeatedly. • 12) 200 μL of Human LDLR conjugate was added, a self-adhesive seal was applied, and the plate was placed on the plate shaker, well mixed uniformly, and incubated for 2 hours. • 13) The plate was placed on the plate washer, the washing liquid was set to 350 μL per well, and the plate was washed 4 times repeatedly. • 14) 200 μL/well of Substrate solution was added, and the plate was placed in the dark, applied with a self-adhesive seal, placed on the plate shaker, well mixed uniformly, and incubated for 20 minutes. • 15) 50 μL/well of Stop solution was added and mixed uniformly over 20 min. • 16) The optical density (OD) value in each well was measured in sequence at a wavelength of 450 nm by the microplate reader.
After the OD values were read by the microplate reader, the OD value of the 0-concentration standard in the standard group was subtracted from the OD values of the standards, control group, and samples to obtain the actual OD values for these wells. A standard curve was plotted with Graphpad and the concentration of the sample was calculated. If the dilution was performed during the sample detection, the calculated sample concentration was necessarily multiplied by the corresponding dilution ratio in the final calculation, which was the actual concentration of the sample. Concentration increase %=(actual concentration in control-actual concentration in sample)/actual concentration in control*100.

Chain of PCSK9 secreted by HepG2 cells (Q8NBP7 153-692): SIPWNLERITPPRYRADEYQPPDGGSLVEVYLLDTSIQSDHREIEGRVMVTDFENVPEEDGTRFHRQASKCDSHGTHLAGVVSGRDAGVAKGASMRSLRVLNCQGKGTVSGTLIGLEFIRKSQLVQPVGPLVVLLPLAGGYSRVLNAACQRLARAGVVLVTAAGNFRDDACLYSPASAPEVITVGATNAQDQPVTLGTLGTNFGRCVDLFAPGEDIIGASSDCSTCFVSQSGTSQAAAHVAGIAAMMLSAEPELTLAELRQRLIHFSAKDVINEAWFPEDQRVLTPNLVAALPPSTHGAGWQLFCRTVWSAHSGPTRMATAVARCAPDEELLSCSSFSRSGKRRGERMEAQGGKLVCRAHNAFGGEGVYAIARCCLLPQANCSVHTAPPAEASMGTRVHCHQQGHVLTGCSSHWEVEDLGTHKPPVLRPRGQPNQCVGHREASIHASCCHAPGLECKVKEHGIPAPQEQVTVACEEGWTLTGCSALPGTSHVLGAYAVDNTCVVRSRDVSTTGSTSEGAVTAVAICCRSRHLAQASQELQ
Chain of PCSK9 secreted by HepG2 cells (Q8NBP7 31-152 partner): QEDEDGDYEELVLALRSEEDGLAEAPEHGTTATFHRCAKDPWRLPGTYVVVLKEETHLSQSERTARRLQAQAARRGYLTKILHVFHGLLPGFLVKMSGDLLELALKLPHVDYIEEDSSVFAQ
Chain of PCSK9 protein (Q8NBP7 153-692): as the sequence (Q8NBP7 153-692) above

SMILES | LDL-C change, Day 14 ([1]; 10 mpk) [%] | Time to peak tmax [2] [h] | AUC(0-inf) [2] [ng·h/mL] | half-life [2] [h] | MRT [2] [h] | Cmax [2] [ng/mL] | IC50 [3] [nM] | Kd [4] [nM] | LDLR expression level [5] [%] | LDL-C change, Day 14 ([1]; 5 mpk) [%] | LDL-C change, Day 14 ([1]; 3 mpk) [%] | LDL-C change, Day 14 ([1]; 6 mpk) [%]
Cc1cc2c(cn1)CN(c1ccc(N[C@H]3CC[C@H](Nc4nc5cc(C(F)(F)F)ccn5n4)C3)nc1)C2=O [Example 156, 6-Methyl-2-(6-(((1S,3S)-3-((7-(trifluoromethyl)-[1,2,4]triazolo[1,5-a]pyridin-2-yl)amino)cyclopentyl)amino)pyridin-3-yl)-2,3-dihydro-1H-pyrrolo[3,4-c]pyridin-1-one] | −25.97 | 1 | 19700 | 3.6 | 3.2 | 5010 | 2100 | 4.8 | – | – | – | –
O=C1c2cccnc2CN1c1ccc(N[C@H]2CC[C@H](Nc3ncc(OC(F)F)cn3)C2)nc1 [Example 77, 6-(6-(((1S,3S)-3-((5-(difluoromethoxy)pyrimidin-2-yl)amino)cyclopentyl)amino)pyridin-3-yl)-6,7-dihydro-5H-pyrrolo[3,4-b]pyridin-5-one] | – | 0.25 | 8080 | 4.3 | 2.1 | 4720 | – | 1.5 | 117 | – | – | –
Cc1nccc2c1CN(c1ccc(N[C@H]3CC[C@H](Nc4nc5cc(F)ccn5n4)C3)nc1)C2=O [Example 149, 2-(6-(((1S,3S)-3-((7-fluoro-[1,2,4]triazolo[1,5-a]pyridin-2-yl)amino)cyclopentyl)amino)pyridin-3-yl)-4-methyl-2,3-dihydro-1H-pyrrolo[3,4-c]pyridin-1-one] | −41.65 | 0.5 | 24200 | 4.8 | 2.4 | 12300 | 15500 | 1.4 | – | – | – | –
O=C1c2ncccc2CN1c1ccc(N[C@H]2CC[C@H](Nc3nc4cc(F)ccn4n3)C2)nc1 [Example 129, 6-(6-(((1S,3S)-3-((7-fluoro-[1,2,4]triazolo[1,5-a]pyridin-2-yl)amino)cyclopentyl)amino)pyridin-3-yl)-5,6-dihydro-7H-pyrrolo[3,4-b]pyridin-7-one] | – | 0.5 | 9640 | 3.9 | 1.5 | 4880 | 7400 | – | – | −21.98 | – | –
O=C1c2cccc(C(F)(F)F)c2CN1c1ccc(N[C@H]2CC[C@H](Nc3ncc(C(F)(F)F)nn3)C2)nc1 [Example 158, 4-(Trifluoromethyl)-2-(6-(((1S,3S)-3-((6-(trifluoromethyl)-1,2,4-triazin-3-yl)amino)cyclopentyl)amino)pyridin-3-yl) isoindolin-1-one] | −28.97 | 4 | 22400 | 16.2 | 19.5 | 2320 | 1900 | – | – | – | – | –
O=C1c2ncccc2CN1c1ccc(N[C@H]2CC[C@H](Nc3ncc(OC(F)F)cn3)C2)nc1 [Example 57, 6-(6-(((1S,3S)-3-((5-(difluoromethoxy)pyrimidin-2-yl)amino)cyclopentyl)amino)pyridin-3-yl)-5,6-dihydro-7H-pyrrolo[3,4-b]pyridin-7-one] | – | 1 | 41500 | 5.9 | 4.8 | 9960 | 22000 | – | – | – | −46.22 | –
O=c1ccccn1-c1ccc(N[C@H]2CC[C@H](Nc3ncc4cccn4n3)C2)nc1 [Example 20, 6′-(((1S,3S)-3-(pyrrolo[2,1-f][1,2,4]triazin-2-ylamino)cyclopentyl)amino)-2H-[1,3′-bipyridinyl]-2-one] | – | – | – | – | – | – | 14000 | 2.4 | 302 | – | – | –
O=C1c2cc(C(F)(F)F)ncc2CN1c1ccc(N[C@H]2CC[C@H](Nc3nc4cc(F)ccn4n3)C2)nc1 [Example 151, 2-(6-(((1S,3S)-3-((7-fluoro-[1,2,4]triazolo[1,5-a]pyridin-2-yl)amino)cyclopentyl)amino)pyridin-3-yl)-6-(trifluoromethyl)-2,3-dihydro-1H-pyrrolo[3,4-c]pyridin-1-one] | – | 2 | 97700 | 15.1 | 19 | 7420 | 1300 | – | 138 | – | – | –
O=C1c2ncccc2CN1c1ccc(N[C@H]2CC[C@H](Nc3nc4cc(C(F)(F)F)ccn4n3)C2)nc1 [Example 143, 6-(6-(((1S,3S)-3-((7-(trifluoromethyl)-[1,2,4]triazolo[1,5-a]pyridin-2-yl)amino)cyclopentyl)amino)pyridin-3-yl)-5,6-dihydro-7H-pyrrolo[3,4-b]pyridin-7-one] | −34.97 | 1 | 11600 | 3.9 | 2.2 | 3870 | – | 1.2 | – | – | – | –
Cc1cc2c(cn1)CN(c1ccc(N[C@H]3CC[C@H](Nc4nc5cc(F)ccn5n4)C3)nc1)C2=O [Example 147, 2-(6-(((1S,3S)-3-((7-fluoro-[1,2,4]triazolo[1,5-a]pyridin-2-yl)amino)cyclopentyl)amino)pyridin-3-yl)-6-methyl-2,3-dihydro-1H-pyrrolo[3,4-c]pyridin-1-one] | – | 2 | 52000 | 4.4 | 4.8 | 8230 | 24100 | – | – | – | −23.20 | –
O=c1ccccn1-c1ccc(N[C@H]2CC[C@H](Nc3nc4cc(F)ccn4n3)C2)nc1 [Example 27, 6′-((3-(((1S,3S)-7-fluoro-[1,2,4]triazolo[1,5-a]pyridin-2-yl)amino)cyclopentyl)amino)-2H-[1,3′-bipyridinyl]-2-one] | – | – | – | – | – | – | – | 2.6 | – | – | – | −31.52
O=C1c2ncccc2CN1c1ccc(N[C@H]2CC[C@H](Nc3ncc(C(F)(F)F)cn3)C2)nc1 [Example 134, 6-(6-(((1S,3S)-3-((5-(trifluoromethyl)pyrimidin-2-yl)amino)cyclopentyl)amino)-3-yl)-5,6-dihydro-7H-pyrrolo[3,4-b]pyridin-7-one] | – | 2 | 76600 | 4.1 | 5.8 | 9360 | 2200 | – | – | −60.65 | – | –
